Experimental data from patent publication US6469027B1, “N-methyl-D-aspartate (NMDA) receptor blockers for the prevention of atherosclerosis” (The Board of Regents of the University of Nebraska, priority 1996, dated 2002).
Entries after “also recorded” stand apart in the source; their conditions may differ. Read-outs that look alike come from different tables or passages of the source.

Legend:
c-myb [1] = assay: c-myb expression in TA-VSMCs; format: cell-based; conditions: NMDA receptor blockers
c-myb [2] = assay: c-myb expression in N-VSMC (RT-PCR, immunoprecipitation and western blot); format: cell-based, chicken; conditions: for effect on homocysteine-induced c-myb induction: 200 μM H[cys], 50 μM Mk-801 or 1 mM CGS19755, 24 hours
Method: FIGS. 3A, 3B and 3C are RNA blot analyses of c-fos and c-myb mRNA isolated from N-VSMC cultures. Cultures were incubated in the absence and presence of 200μM H[cys] for 0, (lane 1); 15 min, (lane 2); 30 min, (lane 3); 45 min, (lane 4) and 60 min, (lane 5); and analyzed for c-fos expression. In FIG. 3B, the time course of c-myb MRNA induction in the presence of 200μM H[cys] for 0 h, (lane 1); 8 h, (lane 2); 16 h, (lane 3); 24 h, (lane 4). The c-fos transcripts were analyzed by northern blot and normalized to β actin expression. The amount of c-myb mRNA levels were normalized to estrogen receptor (ER) transcripts as determined by RT-PCR. […] The amount of c-myb mRNA levels were normalized to estrogen receptor (ER) transcripts as determined by RT-PCR. The amount of specific radiolabeling in the autoradiograph was quantified by scanning densitometry. The size of the c-Myb protein is 75 kilodaltons. The 75 kilodalton band is defined as c-Myb because immunoprecipitation of this protein was not detected in the presence of synthetic polypeptide [[…] encoded by sequences 1080-1133].
FIG. 4 is a graph illustrating the analysis of c-myb synthesis in response to NMDA receptor antagonist, Mk-801 and CGS19755. Immunoprecipitation and western blotting of radiolabeled c-Myb from N-VSMC treated with 200μMH[cys] in the presence and absence of 50 μM Mk-801 or 1 mM CGS19755. Cell cultures were treated with and without H[cys] for 24 hours, extracts were immunoprecipitated with anti c-myb IgG and samples were separated by SDS-PAGE gels and western blotted. The amount of specific radiolabeling in the autoradiograph was quantified by scanning densitometry. The size of the c-Myb protein is 75 kilodaltons. The 75 kilodalton band is defined as c-Myb because immunoprecipitation of this protein was not detected in the presence of synthetic polypeptide [I13-[…] encoded by sequences 1080-1133].
RNA Blot Analysis: Total RNA was isolated from VSMC derived from thoracic and abdominal aorta by homogenization, and lysis with guanidinium isothiocyanate was followed by phenol-chloroform extraction. Ten micrograms of total RNA per lane was separated in a 1.5% agarose-formaldehyde gel, and the RNA was transferred by capillary transfer to a 0.45 μm nylon membrane. Filters were hybridized as previously with cDNAs labeled with [^32P]deoxycytidine5′-triphosphate to specific activities of approximately 2×10^9 cpm/μg using a random prime labeling kit (Boehringer Mannheim Biochemicals, Indianapolis, Ind.). The probes included chicken c-fos, Bactin, estrogen receptor (ER) and c myb.
Reverse Transcriptase-Polymerase Chain Reaction: Reverse transcription of 4 to 10,000 nanograms (ng) of RNA using 10 picomoles (pm) of hexamer primers was performed for 90 minutes (min) at 37° C. using 200 units superscript reverse transcriptase (Gibco BRL), in 50 mM Tris, pH, 8.2, 75 Mm KC1, 3 mM MgCl2, 10 mM dithiothreitol (DTT), 1 unit/μ1 RNasin (Promega), and 1 mM each of DATP, dCTP, dGTP, and dTTP. The samples were heated at 95° C. for 5 min to terminate the reverse transcription. The resulting cDNA was treated with 1 unit of […] at 37° C. for 20 min. A 5% fraction of the cDNA was subjected to PCR using c-myb upstream (5′ggTCCTTTgAAgATgCTgCC3′) and downstream(5′[…]gAgTCCgggTTg3′) primers; estrogen receptor (ER) (5′ggACTgCCAgCTgCCgATCTT3′) and (5′CTCACgAATgTggCgCCT3′) primers; β actin (5′AAgAggTAATCCTgACCCCTgAA3′) and (5′ACCCTgACCATCAgggAgTTCA3′) primers. PCR was performed using 0.25 μM of each primer, 3 μM cDNA, 0.2 mM of each deoxynucleotide triphosphate, 75 mM KC1, 1.5 mM MgCl2 and 0.5 unit Taq polymerase (Perkin Elmer; Cetus) in 10 mM Tris-HC1, pH 8.3 with total volume of 100 μl. […] PCR products were analyzed by electrophoresis in 1.5% agarose gels stained with ethidium bromide. PCR amplifications of all target templates and controls were run in parallel or on the same sample. […]

N-VSMC [3] = assay: Cell proliferation (cell number) of N-VSMC cultures; format: cell-based, chicken; conditions: for effect on increase in cell number in the presence of H[cys]: 1% FBS and 100 μM H[cys]; for cell damage after treatment for ten days: low levels of PKC inhibitors, growth after removal
Method: FIGS. 5A and 5B are graphs illustrating cell growth and DNA synthesis of N-VSMC cultures. (A) Cells were cultured in M199 supplemented with 1% FBS in the presence and absence of 100 μM H[cys]. The medium was renewed every three days and cell numbers were determined by Coulter counter or emocytometer. Each point represents the mean of quadruplicate samples counted six times. (B) Cells were grown to confluency, growth arrested in M199 and 1 μg/ml of bovine serum albumin for two days. Cultures were exposed to various concentrations of H[cys] (0.01-1000 μM) for 30 h, pulse labeled for 6 h with 2 μCi/ml of [^3H]thymidine. The amount of [^3H]thymidine incorporation was determined by scintillation spectrophotometry. Results are shown as the mean of ±S.E.M.
FIGS. 7A-7C are graphs illustrating the effect of H[cys] on diacylglycerol content in N-VSMC. (A) Time course of changes of membrane diacylglycerol content cell treated with 100μM H[cys] for the various times. Cells were recovered, membrane lipids extracted and diacylglycerol amounts determined as described in Methods. Results are expressed as the mean ± standard error of quadruplicate incubations from six independent experiments. (B) Effects of varying concentrations of H[cys] on diacylglycerol synthesis. Cells were treated for 30 min with different concentrations of H[cys] and membrane lipids were isolated and the diacylglycerol content determined. (C) Effect of PKC inhibitors on H[cys] mediated cell proliferation. N-VSMC cultures were grown in 1% FBS and 100 μM H[cys] in the presence and absence of staurosporine and cheleyrithrine chloride for the times (days-d) indicated. Cells were counted in quadruplicate in a Coulter counter every three days. Values represent the mean ±S.D. from four independent experiments.
(§1) Smooth Muscle Culture: The thoracic (N) and abdominal (M) aorta of normal 16 and 18-day embryos were cleaned of fat, and the intima-media was isolated from the adventitia. The intima-media was enzymatically dispersed into a single cell suspensions by a combination of collagenase and elastase followed by trypsin. VSMC were placed in primary culture at a constant density of 2×10^4 cells/cm^2 in multiwell plates or 100 mm culture plates in Medium 199 supplemented with 10% fetal bovine serum (FMS) and 2 mM glutamine, in an atmosphere of 95% air: 5% Co2 at 37° C. Primary cultures were grown for 7 days before they were seeded into first passage at the same cell density and grown to confluence. Experiments were carried out between passages 3-6. Experimental conditions for all cells included 48 h in Medium 199 supplemented with 1% FBS prior to initiating and experiment.

TA-VSMCs = assay: [3H]thymidine labeling (DNA synthesis) in TA-VSMCs; format: cell-based
From the text: Effect of calcium channel activation on DNA synthesis. Effect of glutamate receptor calcium channels and L-type calcium channels activation was examined by measuring [^3H]thymidine labeling.

N-VSMC [4] = assay: [3H]thymidine incorporation (DNA synthesis) in N-VSMC cultures; format: cell-based, chicken
Method: FIG. 1 is a graph illustrating homocysteine's effects on the growth of VSMC cultures. Confluent N-VSMC cultures were growth arrested by incubating cells with M199 medium containing 1 μg/ml BSA for 48 h, exposed to various concentrations of H[cys] (0.01-4000μM) for 30 h, pulse labeled for 6 h with 2 μCi/ml [^3H]-thymidine, and cell monolayers were washed twice with cold (0° C.) 10% trichloroacetic acid (TCA). The amount of [^3H]-thymidine incorporation was determined by scintillation spectrophotometry. Results are shown as the means of ±S.D.
FIGS. 2A-2C are graphs illustrating the effects of glutamate, homocysteic acid and NMDA on DNA synthesis in N-VSMC. N-VSMC were cultured and serum-deprived as described in “Experimental Procedures.” Cultures were treated with various concentrations of homocysteic acid (2A), NMDA (2B), or L-glutamate (2C) for 30 and pulsed 6h with [^3H] thymidine. All values are expressed as ±S.D. of six independent experiments completed in quadruplicate.
as §1
DNA Synthesis: Growth factors were added directly to quiescent VSMCs in Medium 199 as described above. The cells were pulsed between 4-6 h with a final concentration of 2-5 μCi/ml [^3H]thymidine added at the times and for the periods indicated in the figure legends. The cells were washed, and the incorporation of [^3H]thymidine into acid insoluble material was determined as previously described. Den-Heijer, M. et al. (1996), Hyperhomocystinemia as a risk factor for deep-vein thrombosis. N. Eng. J. Med. 334(12):759-762.

VSMC = conditions: low concentrations
[5] = high doses; cited from earlier work
[6] = tested on: Thoracic aorta VSMC from E14 embryos; assay: Intracellular Ca++ by Fura 2 fluorometry; format: cell-based, chicken; conditions: 15 min pretreatment
Method: FIGS. 8A and 8B are graphs illustrating E14 embryonic neural crest-derived response to Hcy. (A) Normal E14 cell response; (B) Ca++ influx is prevented by 15 min pretreatment with NMDA receptor blocker MK801, which acts at the NMDA receptor calcium channel.
The most common signaling device for mitosis is calcium influx. Therefore, the inventors measured the change in intracellular Ca^++ by Fura 2 fluorometry. Thoracic aorta VSMC from E14 embryos were harvested and grown on coverslips using the procedure set forth above. Fura 2 was added during 45 minutes at room temperature. Then the cover slips were placed in a photometer. Fura 2 was excited at 350 and 380 nm with a xenon light source, appropriate monochromators and a chopper (Deltascan, Princeton). Emitted signals passed through a 510±20 band pass filter. When the cells were treated with a solution of 200 μM Hcy, there was a rapid flux of Ca^++ that reached a plateau in about 50 seconds, and remained elevated for the duration of the 500 sec measurement interval as shown in FIGS. 8A and 8B. Similar results have been found with adult rabbit aortic smooth muscle cells, as set forth below.

O=C(O)[C@@H]1C[C@H](CP(=O)(O)O)CCN1 [CGS 19755]
effect on homocysteine effect on c-myb expression (c-myb [1]): blocked
effect on homocysteine-induced c-myb induction (c-myb [2]): blocked
effect on homocysteine-induced c-myb induction (c-myb [2]; listed as CGS19755): block
effect on homocysteine-induced cell proliferation (N-VSMC [3]): inhibited; also recorded: no increase in cell proliferation
effect on homocysteine-induced cell proliferation (N-VSMC [3]; listed as CGS19755): block
effect on NMDA and homocysteine DNA synthesis responses (TA-VSMCs): blocked

N[C@@H](CCC(=O)O)C(=O)O [glutamate, L-glutamate]
activation of the same responses as H[cys] (N-VSMC [4]): do not significantly activate
[3H] thymidine incorporation stimulated (N-VSMC [4]; 10 mM): 2 fold

CCO [ethanol]
effect on pharmacological effect of homocysteine in VSMC (VSMC): completely blocked

O=C(O)CN(CCOCCOCCN(CC(=O)O)CC(=O)O)CC(=O)O [EGTA]
effect on stimulation of DNA synthesis (TA-VSMCs; chelation of extra cellular Ca2+ by addition to the medium): prevented

N[C@@H](CCS(=O)(=O)O)C(=O)O [homocysteic acid]
[3H] thymidine incorporation stimulated (N-VSMC [4]; 1 mM): 2 fold

CN[C@@H]1C[C@H]2O[C@@](C)([C@@H]1OC)n1c3ccccc3c3c4c(c5c6ccccc6n2c5c31)C(=O)NC4 [staurosporine]
effect on increase in cell number in the presence of H[cys] (N-VSMC [3]): blocked
cell damage after treatment for ten days (N-VSMC [3]): did not permanently damage the cells

COc1ccc2c(c[n+](C)c3c4cc5c(cc4ccc23)OCO5)c1OC.[Cl-] [cheleyrthrine chloride]
effect on increase in cell number in the presence of H[cys] (N-VSMC [3]): blocked
cell damage after treatment for ten days (N-VSMC [3]): did not permanently damage the cells

COc1ccc2c(c1)[C@]13CCCC[C@@H]1[C@H](C2)N(C)CC3 [dextromethorphan]
side effects [5]: drowsiness, nausea, and decreased coordination

CN[C@H](CC(=O)O)C(=O)O [NMDA, N-methyl D-aspartate acid]
activation of the same responses as H[cys] (N-VSMC [4]): do not significantly activate
[3H] thymidine incorporation stimulated (N-VSMC [4]; 10 mM): 2 fold
expression of Myb, agonist per se (c-myb [2]; embryonic smooth muscle cells): did not induce
[3H] thymidine increased (TA-VSMCs; incubated with NMDA): 2 fold

C[C@]12N[C@H](Cc3ccccc31)c1ccccc12 [MK-801]
effect on Hcy-induced Ca++ influx [6]: prevented
effect on homocysteine effect on c-myb expression (c-myb [1]): blocked
effect on homocysteine-induced c-myb induction (c-myb [2]): completely suppressed; also recorded: block
effect on homocysteine-induced cell proliferation (N-VSMC [3]): inhibited
effect on homocysteine-induced cell proliferation (N-VSMC [3]; listed as Mk-801): block
effect on NMDA and homocysteine DNA synthesis responses (TA-VSMCs): blocked
